Assays:
[1] = test system: sterol biosynthesis system (rat liver slices); assay: Effects on sterol biosynthesis in rat liver slices ([1-14C] acetic acid incorporation); format: cell-based, male Wistar rat; details: 37° C., 2 hours, radioactivity of sterol fraction vs control
Description: (§1) Effects on sterol and fatty acid biosynthesis systems obtained from a rat liver slices
(§2) Pharmacological tests were carried out according to the procedure mentioned below, referring to the following document: Endo, A., Tsujita, Y., Kuroda, M. and Tanzawa, K., Eur. J. Biochem., 77, 31-36 (1977).
(§3) The liver was extirpated from a male Wistar rat (body weight: about 200 g) immediately after sacrifice by decapitation, and sufficiently perfused with ice-cold Krebs-Ringer bicarbonate buffer solution. The liver slices (100 mg) were added to 1 ml of Krebs-Ringer bicarbonate buffer solution containing [1-^14 C] acetic acid (2 μci/μmol) and one of test compounds adjusted to various concentrations, and the reaction was carried out at 37° C. for 2 hours in 95% O2 -5% CO2 gas mixture. After cooling the reaction mixture, 2 ml of petroleum ether was added thereto to extract the sterol fraction with shaking. The extract was concentrated and 1 ml of 1% digitonin solution was added thereto. After standing, the mixture was centrifuged. The sterol fraction obtained as the sediment was washed several times with an organic solvent and dissolved in 1 ml of acetic acid. Subsequently, radioactivity of the sterol fraction was measured. Then the concentration of the test compound (IC50) was determined at which the radioactivity was inhibited by 50% compared with the radioactivity observed in the control group wherein the test compounds were not used.

[2] = test system: fatty acid biosynthesis system (rat liver slices); assay: Effects on fatty acid biosynthesis in rat liver slices ([1-14C] acetic acid incorporation); format: cell-based, male Wistar rat; details: 37° C., 2 hours, radioactivity of fatty acid fraction vs control
Description: as §1, §2, §3
In a similar manner, the radioactivity of fatty acid fraction was determined which was obtained by treating, with hydrochloric acid, the lower layer of the petroleum ether mentioned in the above procedure.

[3] = test system: serum lipid (triglyceride and cholesterol); assay: Rate of decrease in serum lipid (triglyceride and cholesterol) in rats after 14-day oral administration; format: in vivo, male Sprague-Dawley rats; details: 300 mg/kg orally everyday for 14 days; 24 hours after last administration; vs control group (0.5% HPMC)
Description: Male Sprague-Dawley rats (body weight: about 130 g) were preliminarily bred for one week, and divided into groups, each group consisting of five rats. Each of the test compounds was suspended in a 0.5% hydroxy-propylmethylcellulose (HPMC) aqueous solution, and the suspensions were orally administered to the rats at a dose of 300 mg/kg at 9:00 a.m. everyday for 14 days. […] The blood was allowed to stand and centrifuged to obtain serum. Lipid (triglyceride and cholesterol) in the obtained serum was measured by the enzymic method using an autoanalyzer.
Pharmacological activities of the test compounds were determined as the rate of decrease (%) in serum lipid compared with the control group to which only 0.5% aqueous HPMC solution was administered.

IC50 [1] [µM] | IC50 [2] [µM] | SMILES | Rate of decrease in total cholesterol in serum [3] [%] | Rate of decrease in triglyceride in serum [3] [%]
7.1 | 33.7 | O=C(O)c1ccc(OCC2COC(=O)N2c2ccccc2)cc1 (stereo not drawn) [Compound 180, 4-(3-phenyl-2-oxooxazolidin-4-yl)methoxybenzoic acid] | – | –
4.8 | 4 | O=C1OC(COc2ccc(CCCO)cc2)CN1c1ccc(Cl)cc1 (stereo not drawn) [Compound 194, 3-{4-[3-(4-chlorophenyl)-2-oxooxazolidin-5-yl]methoxyphenyl}propyl alcohol] | – | –
17.4 | 5.7 | O=C(O)/C=C/c1ccc(OCC2CN(c3ccc(Cl)cc3)C(=O)O2)cc1 (stereo not drawn) [Compound 183] | – | –
34.5 | 9.81 | O=C(O)c1ccc(OCC2CN(c3ccccc3)C(=S)O2)cc1 (stereo not drawn) [Compound 171, 4-(3-phenyl-2-oxazolidinethion-5-yl)methoxybenzoic acid] | – | –
16.4 | 3.8 | O=C(O)CCc1ccc(OCC2CN(c3ccc(Cl)cc3)C(=O)O2)cc1 (stereo not drawn) [Compound 193] | – | –
23.2 | 7.3 | O=C1OC(COc2ccc(CCCO)cc2)CN1c1ccccc1 (stereo not drawn) [Compound 195, 3-[4-(3-phenyl-2-oxooxazolidin-5-yl)methoxyphenyl]propyl alcohol] | – | –
1.15 | 1.09 | O=C(O)c1ccc(OC[C@@H]2CN(c3ccc(Cl)cc3)C(=O)O2)cc1 [Compound 165] | – | –
4.8 | 2.7 | Cc1ccc(N2CC(COc3ccc(CO)cc3)OC2=O)cc1 (stereo not drawn) [Compound 175, 4-[3-(4-tolyl)-2-oxooxazolidin-5-yl]methoxybenzyl alcohol] | – | –

The next lines start with the molecule.

SMILES | IC50 [1] [µM] | IC50 [2] [µM] | Rate of decrease in total cholesterol in serum [3] [%] | Rate of decrease in triglyceride in serum [3] [%]
O=C(O)c1ccc(OCC2CN(c3ccc(C(F)(F)F)cc3)C(=O)O2)cc1 (stereo not drawn) [Compound 101] | 4.8 | 3.17 | – | –
O=C(O)c1ccc(OCC2CN(c3ccc(OC(F)(F)F)cc3)C(=O)O2)cc1 (stereo not drawn) [Compound 108] | – | – | 50.4 | 83.0
O=C(O)c1ccc(OCC2CN(c3ccc(Br)cc3F)C(=O)O2)cc1 (stereo not drawn) [Compound 100] | – | – | 32.4 | 62.9
O=C(O)c1ccc(OCC2CN(c3ccc(Cl)cc3Cl)C(=O)O2)cc1 (stereo not drawn) [Compound 98] | – | – | 26.8 | 65.5
O=Cc1ccc(OCC2CN(c3ccc(Br)cc3F)C(=O)O2)cc1 (stereo not drawn) [Compound 8] | 6.4 | 2.9 | – | –
O=C(O)c1ccc(OC[C@H]2CN(c3ccc(C(F)(F)F)cc3)C(=O)O2)cc1 [Compound 147] | 8.08 | 4.78 | – | –
COc1ccc(N2CC(COc3ccc(C=O)cc3)OC2=O)cc1 (stereo not drawn) [Compound 1, 4-[3-(4-methoxyphenyl)-2-oxooxazolidin-5-yl]methoxybenzaldehyde] | 10.2 | 5.6 | – | –
Cc1ccc(N2CC(COc3ccc(C(=O)O)cc3)OC2=O)cc1 (stereo not drawn) [Compound 83] | 5.74 | 2.89 | – | –
Cc1ccc(CN2CC(COc3ccc(C(=O)O)cc3)OC2=O)cc1 (stereo not drawn) [Compound 130] | 29.5 | 14.8 | – | –
COc1ccc(N2C[C@@H](COc3ccc(C(=O)O)cc3)OC2=O)cc1 [Compound 164] | 0.84 | 1.23 | – | –
O=C(O)c1ccc(OC[C@H]2CN(c3ccc(Cl)cc3)C(=O)O2)cc1 [Compound 149] | 3.36 | 1.99 | – | –
O=C(O)c1ccc(OCC2CN(c3ccc([N+](=O)[O-])cc3)C(=O)O2)cc1 (stereo not drawn) [Compound 81, 4-[3-(4-nitrophenyl)-2-oxooxazolidin-5-yl]methoxybenzoic acid] | 3.79 | 1.3 | – | –
O=C(O)c1ccc(OCC2CN(c3ccc(Br)cc3)C(=O)O2)cc1 (stereo not drawn) [Compound 93] | 3.23 | 1.55 | – | –

Reference: US5480899A, “Oxazolidine derivatives and pharmaceutically acceptable salts thereof” (Taiho Pharmaceutical Co., Ltd., priority 1992, dated 1996)
